The numbers were not newly measured in PMC7682800 (Arteriosclerosis, Thrombosis, and Vascular Biology, 2020), which cites them from elsewhere.

The data set deals with PAR1. The note with it: oral administration.

With `CCOC(=O)N[C@@H]1CC[C@@H]2[C@@H](C1)C[C@H]1C(=O)O[C@H](C)[C@H]1[C@H]2/C=C/c1ccc(-c2cccc(F)c2)cn1` [vorapaxar], the Pharmacodynamic half-life is reported as at least 4 weeks.
